Drawing on PubChem BioAssay AID602167 (The Scripps Research Institute Molecular Screening Center, 2012), this text covers IC50 for 91 compounds.

The target of this assay is transactivating tegument protein VP16 (Human herpesvirus 1), as a GAL4-VP16 activation-domain luciferase reporter. In words: VP16 transactivation inhibitor potency, dose response, counter-screen for SRC3 inhibitor project, cell-based, luminescence, high throughput, SRC3 series (AID 602167). As to conditions: VP16 transactivation luciferase reporter cells.

Active and inactive are the calls of the source. The rule behind the calls is not given here.

`O=C(CCl)N(c1ccccc1)C1CCS(=O)(=O)C1` (stereo unspecified): the IC50 result was “inactive”.

As to `COC(=O)c1cc(S(=O)(=O)NCCc2ccc(Cl)cc2)c[nH]1`, the IC50 entry was “inactive”.

For the compound `Cc1ccc(/C=C2/SC(=S)N(CCCC(=O)Nc3ccc(O)cc3)C2=O)cc1`, the IC50 result was “inactive”.

`CCOc1ccc(CC(=O)Nc2ccc(NC(=O)c3ccco3)cc2)cc1OCC`: the IC50 was 7.73 µM.

For `c1csc(Cc2nn3c(-c4ccncc4)nnc3s2)c1`, the IC50 entry was “inactive”.

`Cc1cccc(CN2CCN(C(=O)CCl)CC2)c1`: the IC50 is > 12 µM (inactive).

As to `CCOC(=O)C(C(C)=O)c1c(Br)c(O)c(O)c2c(C(=O)c3ccc(C)cc3)coc12` (stereo unspecified), the IC50 is 4.28 µM.

Regarding `C(=NNc1ccc2ccccc2n1)c1ccccn1`, the IC50 entry was “inactive”.

Consider `Cc1ccc(C(=O)Nc2cnc3ccccc3c2)cc1`, for which the 50% inhibitory concentration (IC50) was 8.49 µM.

For `O=S(=O)(/C(=C\c1ccc(C(F)(F)F)cc1)c1nc2ccccc2[nH]1)c1ccccc1`, the half-maximal inhibitory concentration (IC50) was 3.93 µM.

For `COc1ccc(/C=C2\CC/C(=C\c3ccc(OC)c(OC)c3)C2=O)cc1OC`, the IC50 result was “inactive”.

With `Cc1sc2ncnc(N3CCC(C(=O)Nc4ccccc4C(C)(C)C)CC3)c2c1C`, the 50% inhibitory concentration (IC50) is 8.88 µM.

For the compound `O=C(COc1ccc(Cl)cc1)Nc1ccc(C(=O)NCc2cccnc2)cc1`, the IC50 entry is “inactive”.

Take `O=C(N/N=C\c1ccc([N+](=O)[O-])s1)c1cncc(Br)c1`: the concentration for half-maximal inhibition (IC50) is 6.45 µM.

Turning to `CC(=O)OCCN1c2ccccc2Sc2cnccc21`, the IC50 is 6.3 µM.

Turning to `CCOc1cc(C(N)=O)cc(Br)c1OC`, the IC50 is > 35.9 µM (inactive).

With `CC(=O)c1cccc(NC(=O)Nc2ccc3c(c2)N(C)C(=O)CS3)c1`, the IC50 result is “inactive”.

`O=C(CCl)N1N=C(c2ccco2)CC1c1ccco1` (stereo unspecified): the IC50 was > 12 µM (inactive).

For the compound `CCc1nc(N)nc(N)c1-c1ccc(Cl)c([N+](=O)[O-])c1`, the IC50 is > 35.8 µM (inactive).

On to `CNC(=O)c1cccn(Cc2ccc(C(F)(F)F)cc2)c1=O`, for which the IC50 was > 35.8 µM (inactive).

Take `COc1cc(NS(C)(=O)=O)ccc1Nc1c2ccccc2nc2ccccc12`: the IC50 was > 35.9 µM (inactive).

On to `CC(=O)c1ccc(Nc2c3c(nc4ccccc24)CCCC3)cc1`, for which the IC50 result is “inactive”.

In the case of `COc1cc(C2c3cc4c(cc3C(OC3OC5COC(c6cccs6)OC5C(O)C3O)C3COC(=O)C23)OCO4)cc(OC)c1O` (stereo unspecified), the IC50 was > 35.8 µM (inactive).

Take `O=C(NCCc1ccccc1)c1ccc2c(c1)OCCO2`: the half-inhibitory concentration (IC50) was 5.83 µM.

As for `Cc1ccc(OCC(=O)c2cc(C)n(-c3ccccc3)c2C)c([N+](=O)[O-])n1`, the IC50 result was “inactive”.

For `Oc1ccc(C=NNc2ccccn2)c(O)c1`, the IC50 result was “inactive”.

Take `Cc1cc(/C=C2\Cc3ccccc3C2=O)c(C)n1-c1ccccc1`: the IC50 entry was “inactive”.

Turning to `COC(=O)c1c(C)n(-c2ccc(OC)cc2)c2ccc(O)cc12`, the IC50 is 8.88 µM.

`C=CS(=O)(=O)N(Cc1ccc(Cl)c(Cl)c1)C[C@@H](O)CO`: the IC50 entry is “inactive”.

As to `Cc1ccc2occ(/C=N/NC(=O)[C@@H](N)Cc3ccccc3)c(=O)c2c1`, the concentration for half-maximal inhibition (IC50) is 9.66 µM.

For the compound `CN(Cc1cnc2nc(N)nc(N)c2n1)c1ccc(C(=O)NC(CCC(=O)O)C(=O)O)c2ccccc12` (stereo unspecified), the IC50 is > 35.9 µM (inactive).

As for `Cc1c(Cl)cccc1NC(=O)Nc1ccccc1C(N)=O`, the IC50 is > 35.9 µM (inactive).

Regarding `Cc1cccc(Oc2sc(C(=O)c3ccccc3)c(N)c2C#N)c1`, the IC50 entry was “inactive”.

Consider `COc1cccc(CNc2ncnc3ccc(-c4c(C)noc4C)cc23)c1`, for which the IC50 was > 35.9 µM (inactive).

Consider `Nc1nccc(-c2ccc(-n3cnc4ccccc43)cc2)n1`, for which the IC50 is 7.5 µM.

For the compound `O=C(CNc1cccc([N+](=O)[O-])c1)N/N=C/c1ccc([N+](=O)[O-])o1`, the IC50 entry was “inactive”.

As for `COc1cc2c(c(OC)c1OC)-c1ccc(SC)c(=O)cc1C(NC=O)CC2` (stereo unspecified), the IC50 result was “inactive”.

Consider `COc1cccc(F)c1C(C[N+](=O)[O-])c1c(N)n(C)c(=O)n(C)c1=O` (stereo unspecified), for which the IC50 was 5.01 µM.

On to `NC(=O)c1sc2nc3c(c(-c4ccco4)c2c1N)CCC3`, for which the concentration for half-maximal inhibition (IC50) is 3.1 µM.

With `CN(C)/C=C/C(=O)c1ccc2noc(-c3ccccc3)c2c1`, the IC50 entry was “inactive”.

In the case of `CC(C)(C)c1cc(C(=O)N/N=C/c2ccc(O)cc2)n(-c2ccccc2)n1`, the IC50 entry is “inactive”.

Consider `CS(=O)(=O)c1ccc(Sc2nc3ccccc3s2)c([N+](=O)[O-])c1`, for which the IC50 is > 35.9 µM (inactive).

Regarding `N#Cc1c2ccc(O)cc2n2ccccc12`, the IC50 is > 35.9 µM (inactive).

Turning to `NS(=O)(=O)c1ccc(Sc2nc3ccccc3s2)c([N+](=O)[O-])c1`, the concentration for half-maximal inhibition (IC50) is 7.26 µM.

Take `O=c1[nH]c2ccccc2n1C1CCN(C(c2cccc3ccccc23)c2nnnn2-c2ccc3c(c2)OCCO3)CC1` (stereo unspecified): the half-inhibitory concentration (IC50) is 7.28 µM.

Regarding `COc1ccc(COC(=O)C2=C(C)NC(=O)NC2c2ccc(F)cc2)cc1` (stereo unspecified), the IC50 is 9.08 µM.

As for `Cc1ccc(N=c2c([N+](=O)[O-])nn(-c3ccc4c(c3)OCCO4)n2O)cc1F`, the IC50 entry is “inactive”.

For the compound `C=C1C(=O)[C@]23C[C@H]1CCC2[C@@]1(C)C(C[C@@H]3O)[C@](C)(C(=O)OC)CC[C@@H]1O` (stereo partly specified), the IC50 was 5.21 µM.

Take `COc1ccc(C)cc1NS(=O)(=O)c1ccc(NC(=O)CN(c2cc([N+](=O)[O-])ccc2C)S(C)(=O)=O)cc1`: the IC50 entry was “inactive”.

Consider `Cc1ccc(N=Nc2ccc3ccccc3c2O)cc1`, for which the IC50 result was “inactive”.

Consider `COc1ccc(Nc2ccncc2[N+](=O)[O-])cc1`, for which the half-inhibitory concentration (IC50) was 6.45 µM.

As to `C=CCOc1ccc(/C=C2\SC(=S)N(CCC(=O)O)C2=O)cc1`, the IC50 was > 35.9 µM (inactive).

As to `COc1cccc(/C=N/Nc2ccc([N+](=O)[O-])cn2)c1O`, the IC50 was 4.48 µM.

As to `COc1cc2oc(=O)cc(-c3ccc(-c4ccc(CO)cc4)cc3)c2c(OC)c1OC`, the IC50 is 5.56 µM.

As to `CCN(c1cccc(C)c1)c1ncnc2nc[nH]c12`, the IC50 entry was “inactive”.

For `C=CCOn1c(C)c(C(C)=O)c2c3nonc3ccc21`, the 50% inhibitory concentration (IC50) is 7.3 µM.

For the compound `Cc1nc2c(-c3ccc(Cl)cc3)cnn2c(N)c1-c1ccc(F)cc1`, the IC50 was 1.2 µM.

On to `NNC(=O)c1cc2ccccc2cc1O`, for which the IC50 entry is “inactive”.

Take `c1ccc(-c2noc(-c3ccc4ccccc4c3)n2)nc1`: the 50% inhibitory concentration (IC50) is 6.07 µM.

For `Cc1cccc(NC(=O)c2cc(Cl)ccc2[N+](=O)[O-])c1`, the IC50 entry was “inactive”.

As to `COc1cccc(/C=N/Nc2cc(-n3nc(C)cc3-c3ccccc3)ncn2)c1O`, the 50% inhibitory concentration (IC50) is 6.45 µM.

As to `CCn1c2ccccc2c2cnc(N=CN(C)C)c(C#N)c21`, the IC50 entry was “inactive”.

Consider `COc1ccccc1C(=O)N(CCC1CCCN1C)c1nc2ccccc2s1` (stereo unspecified), for which the IC50 was 7.9 µM.

Take `O=S(=O)(c1ccc(F)cc1)c1snnc1-c1ccccc1`: the IC50 result is “inactive”.

As for `O=C(Nc1ccc(OCC(=O)N2CCOCC2)cc1)c1cncc(Br)c1`, the IC50 entry is “inactive”.

As for `Cc1cc(C(=O)COC(=O)C2=COCCO2)c(C)n1-c1ccccc1`, the IC50 was > 12 µM (inactive).

As for `O=C(Nc1nc2cc3c(cc2s1)OCCO3)C1=COCCO1`, the IC50 was 7.78 µM.

For `CC(C)(C)c1ccc(-c2noc(CCC(=O)Nc3cccnc3)n2)cc1`, the IC50 result is “inactive”.

Take `COc1cc(/C=N/NC(N)=S)cc(Br)c1OCc1ccccc1F`: the IC50 is > 12 µM (inactive).

Turning to `Cc1cc2nccc(-c3ccncc3)n2n1`, the IC50 result was “inactive”.

On to `COC(CN(C(=O)CCl)C(C(=O)NC1CCCCC1)c1ccccc1C)OC` (stereo unspecified), for which the IC50 was 7.26 µM.

For the compound `CCOc1ccc(-c2cc(C)n3nc(C(N)=O)cc3n2)cc1`, the IC50 entry was “inactive”.

As for `Cc1nc(N2CCC(C(N)=O)CC2)c2c(-c3cccs3)csc2n1`, the IC50 result was “inactive”.

For `Cc1c(CC(=O)NCCCC(=O)O)c(=O)oc2cc3c(cc12)CCC(C)(C)O3`, the IC50 result was “inactive”.

On to `CCOC(=O)CC(=O)CSc1nccc(-c2cccnc2)n1`, for which the IC50 result is “inactive”.

`Cc1ccc(N(CCC#N)C(=O)CCl)cc1C`: the IC50 is > 12 µM (inactive).

On to `NC(=S)N/N=C1\CCSc2ccc(Cl)cc21`, for which the IC50 entry is “inactive”.

As for `Fc1ccc(CSc2nnc(-c3ccncc3)o2)cc1`, the IC50 is 3.81 µM.

For the compound `O=C(N/N=C(\c1ccccc1)c1ccccn1)c1ccccc1Cl`, the IC50 was 8.52 µM.

Consider `COc1ccc2[nH]c(=O)c(CN(CCN3CCCC3)C(=O)Nc3ccccc3Cl)cc2c1`, for which the IC50 result is “inactive”.

As to `CCC(=O)c1ccc(O)c(CC=C(C)C)c1`, the half-maximal inhibitory concentration (IC50) was 9.84 µM.

Consider `O=C(CCl)NC(Cc1ccccc1)c1ccccc1` (stereo unspecified), for which the IC50 entry was “inactive”.

On to `O=C(CCCc1nc(-c2ccccc2Cl)no1)NC1CCCC1`, for which the IC50 entry is “inactive”.

As for `Cc1cccc(C)c1NS(=O)(=O)c1ccc(-c2cnc(C3CC3)o2)cc1`, the IC50 was > 12 µM (inactive).

Turning to `COc1ccc(OC)c(N/C=C/C(=O)c2ccccc2)c1`, the IC50 entry was “inactive”.

For the compound `CCOC(=O)c1cc2sccc2n1CC(=O)N1CCc2ccccc21`, the IC50 was > 35.9 µM (inactive).

Regarding `COc1ccc(-n2cnc3c(sc4nccc(N(C)C)c43)c2=O)cc1`, the IC50 result was “inactive”.

Regarding `CN(C)c1ccc(CNC(=O)CCNS(=O)(=O)c2cc(Br)cnc2N)cc1`, the IC50 was 8.6 µM.

As for `Nc1ccc(Oc2ccccc2-c2ccccc2)cc1`, the IC50 result is “inactive”.

`O=c1[nH]c2ccccc2n1C1CCN(C(c2ccccc2)c2nnnn2-c2ccc3c(c2)OCCO3)CC1` (stereo unspecified): the IC50 entry is “inactive”.

As to `CCOc1ccccc1-n1c(SCC(=O)Nc2ccccc2C(=O)O)nc2ccccc2c1=O`, the IC50 result was “inactive”.
